In the NIST ThermoML archive (doi:10.1021/acs.jced.8b01042):
± gives the expanded uncertainty stated by the source.

How the values were obtained:
[1] = 298.15 K; 100 kPa; Liquid; Capillary tube (Ostwald / Ubbelohde) method
[2] = xn = mol fraction of the nth substance listed; conditions: 298.15 K; 101.3 kPa; Liquid; Capillary tube (Ostwald / Ubbelohde) method; x1 = 0.66

| viscosity [1] [mPa·s] | viscosity [2] [mPa·s] | SMILES |
| --- | --- | --- |
| 1200 ± 97 |  | OCC(O)CO [glycerol] |
|  | 20.05 ± 0.84 | OC1COCOC1 [1,3-dioxan-5-ol] + OCC1COCO1 |
| 10.06 ± 0.42 |  | CC1(C)OCC(CO)O1 (stereo not drawn) [2,2-dimethyl-1,3-dioxolane-4-methanol] |
